Read-outs that look alike come from different tables or passages of the source.
How the values were obtained:
[1] = test system: L-amino acylase; type: biochemical, Alcaligenes denitrificans DA181; conditions: for influence of the ion on the enzyme: in words, 30 minutes at 37° C., buffer A
Description: Various metal ions were incubated with an appropriate amount of enzyme for 30 min in 50 mM Tris-HCl pH 8.0. The remaining activity was determined by ninhydrin method.

[2] = test system: L-amino acylase; assay: Substrate specificity of L-amino acylase (ninhydrin method); type: biochemical, Alcaligenes denitrificans DA181; conditions: for Relative activity (%) L-amino acylase: 37° C., 50 mM Tris-HCl buffer pH 8.0
Description: This enzyme may hydrolyze N-acetyl-L-amino acids with a higher reactivity, but hydrolyze the N-acetyl-D-amino acids with a lower reactivity.
(§1) A comparison of the substrate specificity of L-amino acylase of this invention with D-amino acylase is summarized as shown in Table 3.
(§2) The enzyme activity was determined at 37° C. in 50 mM TrisCHl
(§3) buffer pH 8.0 by ninhydrin method.

[3] = test system: D-amino acylase; assay: Substrate specificity of D-amino acylase (ninhydrin method); type: biochemical; conditions: D-form of substrate; 37° C., 50 mM Tris-HCl buffer pH 8.0
Description: as §1, §2, §3

[4] = test system: L-aminoacylase by Aspergillus; conditions: conventional Aspergillus enzyme; cited from earlier work
[5] = metal ion 1 mM, 30 min, 50 mM Tris-HCl pH 8.0
[6] = metal ion 10^-1 mM, 30 min, 50 mM Tris-HCl pH 8.0, 100 µM
[7] = metal ion 10^-2 mM, 30 min, 50 mM Tris-HCl pH 8.0, 10 µM
[8] = metal ion 10^-3 mM, 30 min, 50 mM Tris-HCl pH 8.0, 1 µM

## [Ba+2].[Cl-].[Cl-] [BaCl2]
[1]; [5]
  relative activity of L-amino acylase (%): 92%

## [Ca+2].[Cl-].[Cl-] [CaCl2]
[1]; [5]
  relative activity of L-amino acylase (%): 94%

## [Cl][Cd][Cl] [CdCl2]
[1]
  influence of the ion on the enzyme: inhibited
[1]; [5]
  relative activity of L-amino acylase (%): 16%

## [Cl-].[Cl-].[Co+2] [CoCl2]
[1]; [5]
  relative activity of L-amino acylase (%): 120%

## [Cl][Cu][Cl] [CuCl2]
[1]
  influence of the ion on the enzyme: inhibited
[1]; [5]
  relative activity of L-amino acylase (%): 5%
[1]; [6]
  relative activity of L-amino acylase (%): 77%
[1]; [7]
  relative activity of L-amino acylase (%): 90%
[1]; [8]
  relative activity of L-amino acylase (%): 94%

## O=C(O)CN(CCN(CC(=O)O)CC(=O)O)CC(=O)O [EDTA.2Na]
[1]; 50 mm tris-hcl, pH 8, 30 min, 1000 µM
  relative activity of L-amino acylase (%): 55%

## [Cl][Fe][Cl] [FeCl2]
[1]
  influence of the ion on the enzyme: inhibited
[1]; [5]
  relative activity of L-amino acylase (%): 15%

## [Cl][Hg][Cl] [HgCl2]
[1]
  influence of the ion on the enzyme: inhibited
[1]; [8]
  relative activity of L-amino acylase (%): 0%
[1]; metal ion 10^-4 mM, 30 min, 50 mM Tris-HCl pH 8.0, 0.1 µM
  relative activity of L-amino acylase (%): 0%

## [Cl-].[Cl-].[Mg+2] [MgCl2]
[1]; [5]
  relative activity of L-amino acylase (%): 98%

## [Cl][Mn][Cl] [MnCl2]
[1]; [5]
  relative activity of L-amino acylase (%): 86%

## CC(=O)N[C@@H](C)C(=O)O [N-acetyl-alanine]
[2]; D-form of substrate
  Relative activity (%) L-amino acylase: 0%
[2]; L-form of substrate
  Relative activity (%) L-amino acylase: 78%
[3]
  Relative activity (%) D-amino acylase: 25%

## CC[C@@H](C)[C@H](NC(C)=O)C(=O)O [N-acetyl-alloisoleucine]
[2]; D-form of substrate
  Relative activity (%) L-amino acylase: 0%
[3]
  Relative activity (%) D-amino acylase: 12%

## CC(=O)N[C@@H](CCCNC(=N)N)C(=O)O [N-acetyl-arginine]
[2]; L-form of substrate
  Relative activity (%) L-amino acylase: 0.04%

## CC(=O)N[C@@H](CC(N)=O)C(=O)O [N-acetyl-asparagine]
[2]; D-form of substrate
  Relative activity (%) L-amino acylase: 0%
[2]; L-form of substrate
  Relative activity (%) L-amino acylase: 3%
[3]
  Relative activity (%) D-amino acylase: 17%

## CC(=O)N[C@@H](CC(=O)O)C(=O)O [N-acetyl-aspartic acid]
[2]; L-form of substrate
  Relative activity (%) L-amino acylase: 1%

## CC(=O)N[C@@H](CCC(=O)O)C(=O)O [N-acetyl-glutamic acid]
[2]; L-form of substrate
  Relative activity (%) L-amino acylase: 0.12%

## CC(=O)N[C@@H](Cc1c[nH]cn1)C(=O)O [N-acetyl-histidine]
[2]; L-form of substrate
  Relative activity (%) L-amino acylase: 0.08%

## CC(=O)N[C@@H](CC(C)C)C(=O)O [N-acetyl-leucine]
[2]; D-form of substrate
  Relative activity (%) L-amino acylase: 2%
[2]; L-form of substrate
  Relative activity (%) L-amino acylase: 10%
[3]
  Relative activity (%) D-amino acylase: 60%

## CSCC[C@H](NC(C)=O)C(=O)O [N-acetyl-methionine]
[2]; D-form of substrate
  Relative activity (%) L-amino acylase: 0.12%
[2]; L-form of substrate
  Relative activity (%) L-amino acylase: 30%
[3]
  Relative activity (%) D-amino acylase: 100%

## CC(=O)N[C@@H](Cc1ccccc1)C(=O)O [N-acetyl-phenylalanine]
[2]; D-form of substrate
  Relative activity (%) L-amino acylase: 0.9%
[2]; L-form of substrate
  Relative activity (%) L-amino acylase: 34%
[3]
  Relative activity (%) D-amino acylase: 81%

## CC(=O)N[C@@H](C(=O)O)c1ccccc1 [N-acetyl-phenylglycine]
[2]; D-form of substrate
  Relative activity (%) L-amino acylase: 0%
[3]
  Relative activity (%) D-amino acylase: 5%

## CC(=O)N[C@@H](Cc1c[nH]c2ccccc12)C(=O)O [N-acetyl-tryptophan]
[2]; D-form of substrate
  Relative activity (%) L-amino acylase: 0.9%
[2]; L-form of substrate
  Relative activity (%) L-amino acylase: 11%
[3]
  Relative activity (%) D-amino acylase: 33%

## CC(=O)N[C@@H](Cc1ccc(O)cc1)C(=O)O [N-acetyl-tyrosine]
[2]; L-form of substrate
  Relative activity (%) L-amino acylase: 36%

## CC(=O)N[C@H](C(=O)O)C(C)C [N-acetyl-valine]
[2]; D-form of substrate
  Relative activity (%) L-amino acylase: 7%
[2]; L-form of substrate
  Relative activity (%) L-amino acylase: 95%
[3]
  Relative activity (%) D-amino acylase: 6%

## CC(C)[C@H](NC(=O)CCl)C(=O)O [N-chloroacetyl-L-valine]
[2]; in words
  reactivity of hydrolysis by the enzyme: especially high

## CC(C)[C@H](NC(=O)CCl)C(=O)O [N-chloroacetyl-valine]
[2]; D-form of substrate
  Relative activity (%) L-amino acylase: 0.8%
[2]; L-form of substrate
  Relative activity (%) L-amino acylase: 100%
[3]
  Relative activity (%) D-amino acylase: 66%

## [Cl][Ni][Cl] [NiCl2]
[1]; [5]
  relative activity of L-amino acylase (%): 95%

## [Cl][Pb][Cl] [PbCl2]
[1]
  influence of the ion on the enzyme: inhibited
[1]; [5]
  relative activity of L-amino acylase (%): 50%
[1]; [6]
  relative activity of L-amino acylase (%): 71%
[1]; [7]
  relative activity of L-amino acylase (%): 71%
[1]; [8]
  relative activity of L-amino acylase (%): 97%

## [Cl-].[Cl-].[Sr+2] [SrCl2]
[1]; [5]
  relative activity of L-amino acylase (%): 80%

## [Cl-].[Cl-].[Zn+2] [ZnCl2]
[1]
  influence of the ion on the enzyme: inhibited
[1]; [5]
  relative activity of L-amino acylase (%): 61%

## [Co+2] [cobalt ions]
[4]
  enzyme activation: 2.5 fold

From US5194383A, “Process for making L-aminoacylase” (priority 1991, dated 1993)
